Assay results from ChEMBL document CHEMBL1140248, “3-(1,2,3-Triazol-1-yl)-1-thio-galactosides as small, efficient, and hydrolytically stable inhibitors of galectin-3” (Bioorg Med Chem Lett, 2005).

Key:
[1] = target: Galectin-3 (Mus musculus) (UniProt P16110); assay: Relative affinity for mouse Galectin-3 compared to D-galactose-methyl-beta-glycoside; type: functional
Galectin-3 = Galectin-3 (Mus musculus, UniProt P16110); assay: Dissociation constant for mouse Galectin-3
Galectin-3, sequence (P16110 whole entry): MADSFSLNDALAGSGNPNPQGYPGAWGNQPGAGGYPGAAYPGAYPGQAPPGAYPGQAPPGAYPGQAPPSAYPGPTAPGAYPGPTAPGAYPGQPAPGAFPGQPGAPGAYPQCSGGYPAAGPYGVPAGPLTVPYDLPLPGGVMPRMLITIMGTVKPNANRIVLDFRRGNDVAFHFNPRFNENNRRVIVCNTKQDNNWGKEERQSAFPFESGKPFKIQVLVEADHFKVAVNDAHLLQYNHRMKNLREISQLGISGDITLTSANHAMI

Galectin-3 (Mus musculus), sequence (P16110 whole entry): as above

Compound | Affinity [1] | Kd (Galectin-3) [µM]
LACTOSE, ANHYDROUS | 20 | 
CSC1OC(CO)C(O)C(n2cc(C(=O)NCc3ccccc3)nn2)C1O (stereo not drawn) | 42 | 
CS[C@H]1O[C@@H](COC2O[C@@H](O)[C@H](O)[C@@H](O)[C@H]2O)[C@H](O)[C@@H](NC(=O)c2ccc3ccccc3c2)[C@@H]1O (stereo partly drawn) | 1 | 4400
CSC1OC(CO)C(O)C(n2cc(C3(O)CCCCC3)nn2)C1O (stereo not drawn) | 2.5 | 1750
CSC1OC(CO)C(O)C(n2cc(-c3ccccc3)nn2)C1O (stereo not drawn) | 29 | 147
CSC1OC(CO)C(O)C(NC(=O)c2ccccc2)C1O (stereo not drawn) | 1.7 | 2690
CSC1OC(CO)C(O)C(n2cc(C(=O)NCCCO)nn2)C1O (stereo not drawn) | 12 | 386
CSC1OC(CO)C(O)C(n2cc(C(=O)NCCN3CCOCC3)nn2)C1O (stereo not drawn) | 7.5 | 571
CCCCNC(=O)c1cn(C2C(O)C(CO)OC(SC)C2O)nn1 (stereo not drawn) | 36 | 124
CCCc1cn(C2C(O)C(CO)OC(SC)C2O)nn1 (stereo not drawn) | 1 | 4600
CSC1OC(CO)C(O)C(n2ccnn2)C1O (stereo not drawn) | < 0.2 | > 20000
COC(=O)c1cn(C2C(O)C(CO)OC(SC)C2O)nn1 (stereo not drawn) | 3.2 | 1410
CNC(=O)c1cn(C2C(O)C(CO)OC(SC)C2O)nn1 (stereo not drawn) | 19 | 230
CS[C@H]1O[C@@H](COC2O[C@@H](OC([C@H](O)CO)[C@H](O)[C@@H](NC(C)=O)C(C)=O)[C@H](O)[C@@H](O)[C@H]2O)[C@H](O)[C@@H](NC(=O)c2ccc3ccccc3c2)[C@@H]1O (stereo partly drawn) | 64 | 67
CSC1OC(CO)C(O)C(NC(=O)c2ccc3ccccc3c2)C1O (stereo not drawn) | 16 | 272
